Experimental data: ChEMBL document CHEMBL3853324, “Optimizing Protonation States for Selective Double-Strand DNA Photocleavage in Hypoxic Tumors: pH-Gated Transitions of Lysine Dipeptides” (J Med Chem, 2016)
Calls of active or inactive are those of the source. The rule behind the calls is not given here.

Columns and labels:
Escherichia coli [1] = assay: Induction of Escherichia coli supercoiled pBR322 plasmid DNA photocleavage at 15 uM and pH 6 in presence of NaN3 by densitometric analysis
[2] = Displacement of ethidium bromide from DNA (unknown origin) assessed as Stem-Volmer quenching constant at pH 6 by UV-spectroscopic analysis; design: unit not given here
[3] = Dissociation constant, pKa of the compound for first ionization at 10 uM by fluorescence analysis; format: physicochemical
Escherichia coli [4] = assay: Induction of Escherichia coli supercoiled pBR322 plasmid DNA photocleavage at 15 uM and pH 6 in presence of glycerol by densitometric analysis
[5] = Displacement of ethidium bromide from DNA (unknown origin) assessed as Stem-Volmer quenching constant at pH 8 by UV-spectroscopic analysis; design: unit not given here
[6] = Displacement of ethidium bromide from DNA (unknown origin) assessed as Stem-Volmer quenching constant at pH 7 by UV-spectroscopic analysis; design: unit not given here
Bos taurus [7] = organism: Bos taurus; assay: Ratio of binding affinity to calf thymus DNA at pH 8 to binding affinity to calf thymus DNA at pH 6
[8] = Dissociation constant, pKa of the compound in D2O for second ionization at 1 mM by H1-NMR analysis; format: physicochemical
Escherichia coli [9] = assay: Induction of Escherichia coli supercoiled pBR322 plasmid DNA photocleavage at 15 uM and pH 6 in presence of DMSO by densitometric analysis
[10] = Dissociation constant, pKa of the compound in D2O for first ionization at 1 mM by H1-NMR analysis; format: physicochemical
Bos taurus [11] = organism: Bos taurus; assay: Binding affinity to calf thymus DNA assessed as binding constant at 15 uM and pH 8 by UV-spectroscopic analysis
Bos taurus [12] = organism: Bos taurus; assay: Binding affinity to calf thymus DNA assessed as binding constant at 15 uM and pH 7 by UV-spectroscopic analysis
Bos taurus [13] = organism: Bos taurus; assay: Binding affinity to calf thymus DNA assessed as binding constant at 15 uM and pH 6 by UV-spectroscopic analysis
Escherichia coli [14] = assay: Induction of Escherichia coli supercoiled pBR322 plasmid DNA photocleavage assessed as single stranded break formation per molecule at pH 6 at 15 uM measured after 6 mins of UV-irradiation by densitometric analysis
Escherichia coli [15] = assay: Induction of Escherichia coli supercoiled pBR322 plasmid DNA photocleavage assessed as single stranded break formation per molecule at pH 6 at 15 uM measured after 8 mins of UV-irradiation by densitometric analysis
Escherichia coli [16] = assay: Induction of Escherichia coli supercoiled pBR322 plasmid DNA photocleavage assessed as ratio of single stranded break to double stranded break formation per molecule at pH 6 at 15 uM measured after 6 mins of UV-irradiation by densitometric analysis
Escherichia coli [17] = assay: Induction of Escherichia coli supercoiled pBR322 plasmid DNA photocleavage assessed as single stranded break formation per molecule at pH 6 at 15 uM measured after 4 mins of UV-irradiation by densitometric analysis
Escherichia coli [18] = assay: Induction of Escherichia coli supercoiled pBR322 plasmid DNA photocleavage assessed as double stranded break formation per molecule at pH 6 at 15 uM measured after 6 mins of UV-irradiation by densitometric analysis
Escherichia coli [19] = assay: Induction of Escherichia coli supercoiled pBR322 plasmid DNA photocleavage assessed as double stranded break formation per molecule at pH 6 at 15 uM measured after 4 mins of UV-irradiation by densitometric analysis
Escherichia coli [20] = assay: Induction of Escherichia coli supercoiled pBR322 plasmid DNA photocleavage assessed as double stranded break formation per molecule at pH 6 at 15 uM measured after 8 mins of UV-irradiation by densitometric analysis
Escherichia coli [21] = assay: Induction of Escherichia coli supercoiled pBR322 plasmid DNA photocleavage assessed as ratio of single stranded break to double stranded break formation per molecule at pH 6 at 15 uM measured after 8 mins of UV-irradiation by densitometric analysis
Escherichia coli [22] = assay: Induction of Escherichia coli supercoiled pBR322 plasmid DNA photocleavage assessed as ratio of single stranded break to double stranded break formation per molecule at pH 6 at 15 uM measured after 4 mins of UV-irradiation by densitometric analysis
A-375 [23] = assay: Induction of DNA damage in human A375 cells assessed as abasic site formation at 3 uM preincubated for 1 hr followed by UV-irradiation for 2 hrs relative to control; format: functional
A-375 [24] = assay: Induction of DNA damage in human A375 cells assessed as abasic site formation at 3 uM preincubated for 1 hr followed by UV-irradiation for 2 hrs; format: functional
[25] = Dissociation constant, pKa of the compound for second ionization at 10 uM by fluorescence analysis; format: physicochemical
Escherichia coli [26] = assay: Induction of Escherichia coli supercoiled pBR322 plasmid DNA photocleavage at 15 uM and pH 6 to 8 measured after 1 hr of UV-irradiation by densitometric analysis

KSV [2]	pKa at 10 µM [3]	KSV [5]	KSV [6]	Ratio (Bos taurus [7])	pKa at 1000 µM [8]	Activity (Escherichia coli [9])	pKa at 1000 µM [10]	Kb (Bos taurus [11])	Kb (Bos taurus [12])	Kb (Bos taurus [13])	Activity (Escherichia coli [14])	Activity (Escherichia coli [15])	Ratio (Escherichia coli [16])	Activity (Escherichia coli [17])	Activity (Escherichia coli [18])	Activity (Escherichia coli [19])	Activity (Escherichia coli [20])	Ratio (Escherichia coli [21])	Activity (Escherichia coli [26])	Structure (SMILES)	other results
7	7	1.5	4.4	> 4	7.7	Active	7.2	15000	10500	2830										NCC(=O)NCCC[C@H](N)C(=O)Nc1ccc(C#Cc2c(F)c(F)nc(F)c2F)cc1	Activity (Escherichia coli [1]): Active; Activity (Escherichia coli [4]): Active
26	7.3	5.7	9.2	1.7		Active		18000	16800	10400	0.8	0.9	5.3	0.7	0.15	0	0.2	4.3		N[C@@H](Cc1c[nH]c2ccccc12)C(=O)NCCCC[C@H](N)C(=O)Nc1ccc(C#Cc2c(F)c(F)nc(F)c2F)cc1	Activity (Escherichia coli [1]): Active; Activity (Escherichia coli [4]): Active
6.8	7.3	3.4	5.7	10.5	7.4		7.3	30300	8890	2890	1.7	1.9	9.1	0.6	0.19	0.07	0.29	6.6		C[C@H](N)C(=O)NCCCC[C@H](N)C(=O)Nc1ccc(C#Cc2c(F)c(F)nc(F)c2F)cc1	Ratio (Escherichia coli [22]): 9.4
27.8	7.3	6.7	9.2	5.7	6.7		6.6	66700	13100	11700	1	1.7	8.04	0.7	0.13	0	0.21	8		N[C@@H](Cc1ccccc1)C(=O)NCCCC[C@H](N)C(=O)Nc1ccc(C#Cc2c(F)c(F)nc(F)c2F)cc1	fold change (FC) (A-375 [23]): 2; Activity (A-375 [24]): 17
9.4	6.3	2.6	5.9	1.1				23300	14600	22300										N[C@@H](Cc1ccccc1)C(=O)NC[C@H](N)C(=O)Nc1ccc(C#Cc2c(F)c(F)nc(F)c2F)cc1	pKa at 10 µM [25]: 7.8
11.1	6.6	5.2	7.8	4.6	7.8		7	20200	6750	4440									Active	C[C@H](N)C(=O)NCCC[C@H](N)C(=O)Nc1ccc(C#Cc2c(F)c(F)nc(F)c2F)cc1	
27.8	7.1	6.3	23.6	3	7.2	Active	7.2	32100	12700	10700									Active	N[C@@H](Cc1ccccc1)C(=O)NCCC[C@H](N)C(=O)Nc1ccc(C#Cc2c(F)c(F)nc(F)c2F)cc1	
9	5.5	3.1	4.9	3.5				20500	15000	5850									Active	C[C@H](N)C(=O)NC[C@H](N)C(=O)Nc1ccc(C#Cc2c(F)c(F)nc(F)c2F)cc1	pKa at 10 µM [25]: 8.1
